Experimental data taken from patent US20130030017A1, “QUINOLINE DERIVATIVES AS ANTIBACTERIAL AGENTS” (priority 2005, published 2013).
In brackets after ≈: the same amount, converted by molar mass.

How the values were obtained:
Assay type in all cases: cell-based
[1] = tested on: Streptococcus pneumoniae (ATCC6305); assay: Microtitre plate assay, IC90 determination (SPN 6305); details: 90% inhibitory concentration for bacterial growth, 37° C., resazurin fluorescence; for IC90 SPN 6305: 24 hours; for IC90: Streptococcus pneumoniae, ATCC6305, 24 h
Experimental: (§1) The bacteria used in this study were grown overnight in flasks containing 100 ml Mueller-Hinton Broth (Becton Dickinson—cat. no. 275730) in sterile de-ionized water, with shaking, at 37° C. Stocks (0.5 ml/tube) were stored at −70° C. until use. Bacteria titrations were performed in microtiter plates and colony forming units (CFUs) were determined. In general, an inoculum level of approximately 100 CFUs was used for susceptibility testing.
(§2) Flat-bottom, sterile 96-well plastic microtiter plates were filled with 180 μl of sterile deionized water, supplemented with 0.25% BSA. Subsequently, stock solutions (7.8× final test concentration) of compounds were added in 45 μl volumes in column 2 Serial five-fold dilutions (45 μl in 180 μl) were made directly in the microtiter plates from column 2 to reach column 11. Untreated control samples with (column 1) and without (column 12) inoculum were included in each microtiter plate. Depending on the bacteria type, approximately 10 to 60 CFU per well of bacteria inoculum (100 TCID50), in a volume of 100 μl in 2.8× Mueller-Hinton broth medium, was added to the rows A to H, except column 12. The same volume of broth medium without inoculum was added to column 12 in row A to H. The cultures were incubated at 37° C. for 24 hours under a normal atmosphere (incubator with open air valve and continuous ventilation). At the end of incubation, one day after inoculation, the bacterial growth was quantitated fluorometrically. Therefore resazurin (0.6 mg/ml) was added in a volume of 20 μl to all wells 3 hours after inoculation, and the plates were re-incubated overnight. A change in colour from blue to pink indicated the growth of bacteria. The fluorescence was read in a computer-controlled fluorometer (Cytofluor Biosearch) at an excitation wavelength of 530 nm and an emission wavelength of 590 nm. The % growth inhibition achieved by the compounds was calculated according to standard methods. The IC90 (expressed in μg/ml) was defined as the 90% inhibitory concentration for bacterial growth.

[2] = tested on: Staphylococcus aureus (ATCC29213); assay: Microtitre plate assay, IC90 determination (STA 29213); details: 90% inhibitory concentration for bacterial growth, 37° C., resazurin fluorescence; for IC90 STA 29213: 24 hours; for IC90: Staphylococcus aureus, ATCC29213, 24 h
Experimental: as §1, §2

[3] = tested on: Streptococcus pyogens (ATCC8668); assay: Microtitre plate assay, IC90 determination (SPY 8668); details: 90% inhibitory concentration for bacterial growth, 37° C., 24 hours, resazurin fluorescence
Experimental: as §1, §2

[4] = tested on: Enterococcus faecalis (ATCC29212); assay: Microtitre plate assay, IC90 determination (EFA 29212); details: 90% inhibitory concentration for bacterial growth, 37° C., 24 hours, resazurin fluorescence
Experimental: as §1, §2

[5] = tested on: Pseudomonas aeruginosa (ATCC27853); assay: Microtitre plate assay, IC90 determination (PAE 27853); details: 90% inhibitory concentration for bacterial growth, 37° C., 24 hours, resazurin fluorescence
Experimental: as §1, §2

| Structure (SMILES) | IC90 SPN 6305 [1] | IC90 STA 29213 [2] | other results |
| --- | --- | --- | --- |
| COc1nc2ccccc2cc1C(c1ccccc1)C(O)(CCc1ccccc1)CCN(C)C (racemic) [Compound 13] | 4.1 µg/mL (≈ 9.02 µM) | 36.1 µg/mL (≈ 79.4 µM) |  |
| COc1nc2ccc(-c3ccccc3)cc2cc1C(c1ccccc1)C(O)(CCc1ccccc1)CCN(C)C (racemic) [Compound 59] | 10.6 µg/mL (≈ 20 µM) | 42.2 µg/mL (≈ 79.5 µM) |  |
| COc1nc2ccc(-c3ccccc3)cc2cc1C(c1ccccc1)C(O)(CCc1ccccc1)CCN(C)C (racemic) [Compound 60] | 10.6 µg/mL (≈ 20 µM) | 53.1 µg/mL (≈ 100 µM) |  |
| COc1nc2ccc(-c3cccnc3)cc2cc1C(c1ccccc1)C(O)(CCc1ccccc1)CCN(C)C (racemic) [Compound 61] | 7.5 µg/mL (≈ 14.1 µM) |  |  |
| COc1nc2ccc(-c3ccco3)cc2cc1C(c1ccccc1)C(O)(CCc1ccccc1)CCN(C)C (racemic) [Compound 62] | 10.4 µg/mL (≈ 20 µM) | 8.3 µg/mL (≈ 15.9 µM) |  |
| COc1nc2ccc(-c3cccs3)cc2cc1C(c1ccccc1)C(O)(CCc1ccccc1)CCN(C)C (racemic) [Compound 64] | 10.7 µg/mL (≈ 19.9 µM) | 42.6 µg/mL (≈ 79.4 µM) |  |
| COc1ccc2nc(OC)c(C(c3ccccc3)C(O)(CCc3ccccc3)CCN(C)C)cc2c1 (stereo not shown) [Compound 4] | 9.7 µg/mL (≈ 20 µM) | 10.9 µg/mL (≈ 22.5 µM) |  |
| COc1nc2ccc(Br)cc2cc1C(c1ccccc1)C(O)(CCc1ccccc1)CCN(C)C (stereo not shown) [Compound 17] | 4.8 µg/mL (≈ 9 µM) | 8.5 µg/mL (≈ 15.9 µM) |  |
| COc1nc2ccc(Br)cc2cc1C(c1ccccc1)C(O)(CCc1ccc(F)cc1)CCN(C)C (stereo not shown) [Compound 25] | 1.7 µg/mL (≈ 3.08 µM) | 7.8 µg/mL (≈ 14.1 µM) |  |
| COc1nc2ccc(Br)cc2cc1C(c1ccccc1)C(O)(CCc1ccc(F)cc1)CCN(C)C (stereo not shown) [Compound 27] | 2.0 µg/mL (≈ 3.63 µM) | 1.7 µg/mL (≈ 3.08 µM) |  |
| CSc1nc2ccc(C)cc2cc1C(c1ccccc1)C(O)(CCc1ccccc1)CCN(C)C (stereo not shown) [Compound 30] | 1.9 µg/mL (≈ 3.92 µM) | 7.7 µg/mL (≈ 15.9 µM) |  |
| CNCCC(O)(CCc1ccc(F)cc1)C(c1ccccc1)c1cc2ccccc2nc1OC (stereo not shown) [Compound 38] | 0.3 µg/mL (≈ 0.654 µM) | 1.5 µg/mL (≈ 3.27 µM) |  |
| COc1nc2ccc(CO)cc2cc1C(c1ccccc1)C(O)(CCc1ccccc1)CCN(C)C (stereo not shown) [Compound 58] |  |  | IC90 [1]: 8.6 µg/mL (≈ 17.7 µM); IC90 [2]: 8.6 µg/mL (≈ 17.7 µM) |
| COc1nc2ccc(Br)cc2cc1C(c1ccc(Cl)cc1)C(O)(CCc1ccc(Cl)cc1)CCN(C)C (stereo not shown) [Compound 75] | 3.4 µg/mL (≈ 5.64 µM) | 3.0 µg/mL (≈ 4.98 µM) |  |
| COc1nc2ccc(Br)cc2cc1C(c1ccc(Cl)cc1)C(O)(CCc1ccc(Cl)cc1)CCN(C)C (stereo not shown) [Compound 76] | 0.4 µg/mL (≈ 0.664 µM) |  | IC90 [2]: 2.1 µg/mL (≈ 3.49 µM) |
| COc1ccc(C(c2cc3cc(Br)ccc3nc2OC)C(O)(CCc2ccc(F)cc2)CCN(C)C)cc1 (stereo not shown) [Compound 85] | 2.1 µg/mL (≈ 3.61 µM) | 4.1 µg/mL (≈ 7.05 µM) |  |
| COc1nc2ccc(Br)cc2cc1C(c1ccc(Cl)cc1)C(O)(CCc1ccc(C)cc1)CCN(C)C (stereo not shown) [Compound 86] |  | 41.2 µg/mL (≈ 70.8 µM) | IC90 [1]: 2.1 µg/mL (≈ 3.61 µM) |
| COc1nc2ccc(Br)cc2cc1C(c1ccc(Cl)cc1)C(O)(CCc1ccc(C(F)(F)F)cc1)CCN(C)C (stereo not shown) [Compound 89] |  |  | IC90 [1]: 2.3 µg/mL (≈ 3.62 µM); IC90 [2]: 22.6 µg/mL (≈ 35.5 µM) |
| COc1nc2ccc(Br)cc2cc1C(c1ccc(Cl)cc1)C(O)(CCc1cccc(OC(F)(F)F)c1)CCN(C)C (stereo not shown) [Compound 90] | 2.6 µg/mL (≈ 3.99 µM) | 16.4 µg/mL (≈ 25.2 µM) |  |
| COc1nc2ccc(Br)cc2cc1C(c1ccc(Cl)cc1)C(O)(CCc1cccc(OC(F)(F)F)c1)CCN(C)C (stereo not shown) [Compound 91] | 0.3 µg/mL (≈ 0.46 µM) |  | IC90 [2]: 32.7 µg/mL (≈ 50.2 µM) |

Further lines, with some results ahead:

| IC90 SPN 6305 [1] | IC90 STA 29213 [2] | Structure (SMILES) | other results |
| --- | --- | --- | --- |
| 2.2 µg/mL (≈ 4.02 µM) | 19.4 µg/mL (≈ 35.4 µM) | COc1nc2cc(C)c(Br)cc2cc1C(c1ccccc1)C(O)(CCc1ccccc1)CCN(C)C (racemic) [Compound 16] | IC90 SPY 8668 [3]: 2.2 µg/mL (≈ 4.02 µM); IC90 EFA 29212 [4]: 10.9 µg/mL (≈ 19.9 µM); IC90 PAE 27853 [5]: 2.2 µg/mL (≈ 4.02 µM) |
| 0.4 µg/mL (≈ 0.648 µM) | 2.5 µg/mL (≈ 4.05 µM) | COc1nc2ccc(Br)cc2cc1C(c1ccccc1)C(O)(CCc1cccc(OC(F)(F)F)c1)CCN(C)C (racemic) [Compound 45] | IC90 SPY 8668 [3]: 2.0 µg/mL (≈ 3.24 µM); IC90 EFA 29212 [4]: 2.2 µg/mL (≈ 3.56 µM); IC90 PAE 27853 [5]: 0.7 µg/mL (≈ 1.13 µM) |
| 0.5 µg/mL (≈ 0.831 µM) | 1.9 µg/mL (≈ 3.16 µM) | COc1nc2ccc(Br)cc2cc1C(c1ccccc1)C(O)(CCc1ccc(C(F)(F)F)cc1)CCN(C)C (racemic) [Compound 46] | IC90 SPY 8668 [3]: 1.9 µg/mL (≈ 3.16 µM); IC90 EFA 29212 [4]: 1.9 µg/mL (≈ 3.16 µM); IC90 PAE 27853 [5]: 1.9 µg/mL (≈ 3.16 µM) |
| 8.7 µg/mL (≈ 15.8 µM) | 43.8 µg/mL (≈ 79.4 µM) | COc1nc2ccc(Br)cc2cc1C(c1ccccc1)C(O)(CCc1cccc(F)c1)CCN(C)C (racemic) [Compound 47] |  |
| 2.2 µg/mL (≈ 3.99 µM) | 1.7 µg/mL (≈ 3.08 µM) | COc1nc2ccc(Br)cc2cc1C(c1ccccc1)C(O)(CCc1cccc(F)c1)CCN(C)C (racemic) [Compound 48] | IC90 SPY 8668 [3]: 43.8 µg/mL (≈ 79.4 µM); IC90 EFA 29212 [4]: 43.8 µg/mL (≈ 79.4 µM); IC90 PAE 27853 [5]: 43.8 µg/mL (≈ 79.4 µM) |
| 0.3 µg/mL (≈ 0.528 µM) | 1.8 µg/mL (≈ 3.17 µM) | COc1nc2ccc(Br)cc2cc1C(c1ccccc1)C(O)(CCc1ccc(Cl)cc1)CCN(C)C (racemic) [Compound 55] |  |
| 5.7 µg/mL (≈ 10 µM) | 9.0 µg/mL (≈ 15.8 µM) | COc1nc2ccc(Br)cc2cc1C(c1ccccc1)C(O)(CCc1ccc(Cl)cc1)CCN(C)C (racemic) [Compound 56] |  |
| 0.5 µg/mL (≈ 0.83 µM) | 6.0 µg/mL (≈ 9.96 µM) | COc1nc2ccc(Br)cc2cc1C(c1ccccc1)C(O)(CCc1ccc(Cl)c(Cl)c1)CCN(C)C (racemic) [Compound 57] |  |
| 0.3 µg/mL (≈ 0.521 µM) | 16.2 µg/mL (≈ 28.1 µM) | COc1nc2ccc(Br)cc2cc1C(c1ccccc1)C(O)(CCc1ccc(C(C)C)cc1)CCN(C)C (stereo not shown) [Compound 23] |  |
|  | 2.6 µg/mL (≈ 4.52 µM) | COc1nc2ccc(Br)cc2cc1C(c1ccccc1)C(O)(CCc1ccc(C(C)C)cc1)CCN(C)C (stereo not shown) [Compound 24] | IC90 [1]: 0.3 µg/mL (≈ 0.521 µM) |
| 0.3 µg/mL (≈ 0.558 µM) | 1.5 µg/mL (≈ 2.79 µM) | CNCCC(O)(CCc1ccc(F)cc1)C(c1ccccc1)c1cc2cc(Br)ccc2nc1OC (stereo not shown) [Compound 40] |  |
